Publication PMC8802628, “Selective activation of PFKL suppresses the phagocytic oxidative burst” (Cell, 2021)

Experiments:
PFKL = biological target: T1, PFKL (Homo sapiens, UniProt P17858); assay: Thermal proteome profiling (TPP) of neutrophil lysates; assay type: binding; settings: 10 μM NA-11, 37°C to 65°C
T1 construct: endogenous in cells; host or cells: THP-1 cell lysate
T1 sequence (P17858 2-780 limits assumed): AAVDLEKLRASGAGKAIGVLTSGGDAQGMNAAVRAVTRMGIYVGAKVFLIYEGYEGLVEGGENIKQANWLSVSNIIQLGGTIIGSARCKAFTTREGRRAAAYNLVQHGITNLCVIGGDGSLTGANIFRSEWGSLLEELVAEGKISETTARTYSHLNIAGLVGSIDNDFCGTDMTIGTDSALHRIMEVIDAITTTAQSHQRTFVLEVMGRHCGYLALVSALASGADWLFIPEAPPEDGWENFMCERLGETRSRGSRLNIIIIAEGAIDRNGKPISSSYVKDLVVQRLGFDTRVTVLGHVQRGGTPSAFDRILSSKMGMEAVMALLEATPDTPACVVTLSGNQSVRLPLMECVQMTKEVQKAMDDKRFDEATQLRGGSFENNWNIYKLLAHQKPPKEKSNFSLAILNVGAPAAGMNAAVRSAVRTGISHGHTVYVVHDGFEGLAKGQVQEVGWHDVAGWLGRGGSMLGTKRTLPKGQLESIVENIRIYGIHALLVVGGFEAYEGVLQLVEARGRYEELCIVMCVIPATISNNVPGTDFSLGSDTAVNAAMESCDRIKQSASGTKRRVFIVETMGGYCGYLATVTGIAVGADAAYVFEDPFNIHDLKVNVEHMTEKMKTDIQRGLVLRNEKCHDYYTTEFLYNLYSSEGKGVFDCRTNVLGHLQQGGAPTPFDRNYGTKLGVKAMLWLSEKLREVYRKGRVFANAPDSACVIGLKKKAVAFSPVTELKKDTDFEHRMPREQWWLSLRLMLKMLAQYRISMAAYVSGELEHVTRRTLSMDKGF
Description: Neutrophils (3 × 10^7) were treated with 50 nM PMA for 20 min. Cell were washed twice in D-PBS, resuspended in KB buffer (25 mM Tris-HCL pH 7.5, 1 mM DTT, 10 mM MgCl2) and frozen in liquid nitrogen. Lysates were prepared by 5-7 freeze-thaw cycles in KB buffer. Protein concentration was determined via Bradford assay and lysates were incubated on ice for 30 min with either 10 μM NA-11 or DMSO vehicle. Samples were analyzed in two formats: (1) classical thermal proteome profiling (TPP) with full melting curves using 16-plex TMT labeling (8 temperatures between 37-65°C), and (2) Proteome Integral Solubility Alteration (PISA) assay with aggregated protein abundance from a defined temperature range using 10-plex TMT labeling (Five replicates 44-58°C). […]
For the classical TPP, quantitative data from each temperature were used to generate a thermal titration curve and calculate a melting point. PSM level quantitation was log2 transformed and summarized to protein level by aggregating all PSMs from the same primary Uniprot reference, and systematic variation between the treatments was normalized at each temperature. […] A quality score is calculated for each protein by evaluating R squares, curve slopes and similarity in slopes between the two fitted curves. […] Fold changes and p values were calculated between pre-defined treatment groups by the MSstats package. […]

[1] = tested on: human bronchial epithelial cells (HBECs); assay: Epithelial barrier tissue damage assay (FITC-dextran); assay type: cell-based; settings: PMA-activated neutrophils on HBECs
Description: Human bronchial epithelial cells (HBECs) (4 × 10^4 in […] complete PneumaCult-Ex plus medium) were added to a HTS Transwell-96 permeable support plate (polyester membrane with a 0.4 μm pores) and immersed in receiver plates containing 150 μL of complete PneumaCult-Ex plus medium for 3 days. The medium on confluent monolayers was then replaced with RPMI medium containing neutrophils (4 × 10^4) in RPMI buffer that were previously treated with 5 μM NA-11, 100 μM apocynin, 5 μM NA-4, or DMSO vehicle and then activated with 100 nM PMA. The transwell plate was cultured in a new receiver plate containing 150 μL Hank’s balanced salt solution (HBSS) for 2 h. 10 μL of DMEM supplemented with 5% FBS and 2 mM L-glutamine were added to each well and the plate was incubated for additional 18 h. To measure the permeability of the epithelial barrier, FITC-dextran (200 μg/mL) and DNase-1 (22 Units/mL) were added to the apical side for 1 h. FITC-dextran in the receiver plate was measured (ex: 494 em: 521).

## CC(=O)Nc1ccc2c(c1)OCc1cc(-c3ccccc3C#CCCCO)nn1C2 [NA-11]
PFKL
  thermal shift in melting temperature (Tm) of PFKL: 4 °C
[1]
  protection of epithelial layer from neutrophil-induced oxidative damage: protected the epithelial layer
